The values below come from PubChem BioAssay (NCI).

Some test systems named below: SR leukemia; SF-539 CNS; LOX IMVI melanoma; DLD-1 colon; KM20L2 colon; COLO 205 colon; NCI-H23 lung; NCI-H460 lung; DU-145 prostate; NCI/ADR-RES ovarian.
Holding throughout (test): NCI-60 cell line screen, 48 h

Where “and” joins values, the source holds several entries; their conditions need not be identical. Equal entries are not always repeated.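 Compound exposure: 48 hours, 5 concentrations, 96-well plates. Here, GI50 denotes the concentration required for 50% inhibition of growth. At the TGI there is no net growth.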

As for `O=[N+]([O-])c1ccc(C[P+](c2ccccc2)(c2ccccc2)c2ccccc2)cc1`, the TGI with SR leukemia, with SF-539 CNS, in the experiment on LOX IMVI melanoma, with DLD-1 colon, in the experiment on KM20L2 colon and with COLO 205 colon was greater than 100 µM throughout. Moreover, the TGI in the experiment with NCI-H23 lung and in the experiment with NCI-H460 lung was greater than 100 µM in each case.
As for `N#CC1(C#N)C2(c3ccccc3)OC(c3ccccc3)(c3cc4ccccc4cc32)C1(C#N)C#N`, the TGI is 53.8 µM in the experiment on SR leukemia; 29.6 µM with SF-539 CNS; 11.1 µM in the experiment on LOX IMVI melanoma; 22.3 µM in the experiment on DLD-1 colon; 26.4 µM in the experiment with KM20L2 colon; 28.5 µM in the experiment with DU-145 prostate. Further, the TGI turned out to be 18.1 µM in the experiment on COLO 205 colon, 16.6 µM in the experiment with NCI-H23 lung, 41.7 µM with NCI-H460 lung and 43.8 µM in the experiment on NCI/ADR-RES ovarian.
Take `O=C(O)CN(CC(=O)O)Cc1cc(C#Cc2ccc(C#Cc3ccccc3)cc2)cc(CN(CC(=O)O)CC(=O)O)n1`: the TGI was greater than 62.5 µM in the experiment with SR leukemia; 59.3 µM in the experiment with SF-539 CNS; 45.8 µM with LOX IMVI melanoma; greater than 68.1 µM in the experiment on DLD-1 colon; greater than 76.3 µM in the experiment on KM20L2 colon; greater than 100 µM in the experiment on DU-145 prostate. Moreover, the TGI in the experiment with COLO 205 colon is 36.2 µM; in the experiment on NCI-H23 lung, greater than 89.7 µM; in the experiment on NCI-H460 lung, 66.2 µM; in the experiment on NCI/ADR-RES ovarian, 35.6 µM.
Regarding `COC1=C(N)C(=O)c2nc(C)ccc2C1=O`, the TGI was greater than 24 µM in the experiment on SR leukemia; 3.35 µM with SF-539 CNS; 2.49 µM in the experiment with LOX IMVI melanoma; 5.31 µM in the experiment on DLD-1 colon; 5.07 µM in the experiment with KM20L2 colon; 3.23 µM with COLO 205 colon. The TGI was found to be 2.95 µM in the experiment with NCI-H23 lung and 4.11 µM in the experiment with NCI-H460 lung.
`Cc1nnn[n-]1.N.N.N.N.N.[Cl-].[Co+3]`: the GI50 in the experiment with SR leukemia, in the experiment on SF-539 CNS, in the experiment on LOX IMVI melanoma, in the experiment on DLD-1 colon, in the experiment on KM20L2 colon and in the experiment with COLO 205 colon was greater than 100 µM in each case. Further, the GI50 in the experiment with NCI-H23 lung and in the experiment on NCI-H460 lung was greater than 100 µM in each case. Also, the TGI in the experiment with SR leukemia, in the experiment on SF-539 CNS, with LOX IMVI melanoma, in the experiment on DLD-1 colon, with KM20L2 colon and with COLO 205 colon was greater than 100 µM throughout. Besides, the TGI in the experiment with NCI-H23 lung and in the experiment with NCI-H460 lung was greater than 100 µM throughout.
With `COC(=O)CC1C[C@H](C#N)N(C(=O)c2ccccc2)C[C@@H]1CC[N+](=O)[O-]` (some centres undefined), the TGI with SR leukemia, in the experiment with SF-539 CNS, with LOX IMVI melanoma, in the experiment on DLD-1 colon, with KM20L2 colon and in the experiment with COLO 205 colon was greater than 100 µM each time. Also, the TGI in the experiment with NCI-H23 lung and in the experiment with NCI-H460 lung was greater than 100 µM throughout.
Take `CS(=O)(=O)OC1CCC2(C#N)CCC1C2=O` (centres undefined): the TGI in the experiment on SR leukemia is 44 µM; in the experiment on SF-539 CNS, greater than 100 µM; in the experiment on LOX IMVI melanoma, greater than 100 µM; with DLD-1 colon, greater than 100 µM; with KM20L2 colon it was greater than 100 µM; in the experiment with COLO 205 colon it was greater than 100 µM. Besides, the TGI with NCI-H23 lung and in the experiment with NCI-H460 lung was greater than 100 µM in each case.
For the compound `C=C(C)C(O)CCC1(C)C=Cc2c(c(C)cc3c2[nH]c2ccccc23)O1` (centres undefined), the GI50 in the experiment on SR leukemia is 4.43 µM; in the experiment on SF-539 CNS, 3.64 µM; with LOX IMVI melanoma it was 3.12 µM; in the experiment with COLO 205 colon it was 2.43 µM; in the experiment with NCI-H460 lung, 2.33 µM. Also, the TGI in the experiment on SR leukemia was 25 µM and 16.5 µM; in the experiment on SF-539 CNS it was 9.45 µM and 13.2 µM; in the experiment on LOX IMVI melanoma it was 8.4 µM and 12.2 µM; in the experiment on DLD-1 colon it was 18.8 µM; in the experiment on KM20L2 colon, 7.57 µM; in the experiment with DU-145 prostate, 25.1 µM. Also, the TGI in the experiment on COLO 205 colon was 9.81 µM and 6.13 µM; in the experiment with NCI-H23 lung, 23.3 µM; with NCI-H460 lung, 10.6 µM and 5.86 µM; with NCI/ADR-RES ovarian, 22.6 µM.
For the compound `CN(O)C(=O)SCC(NC(=O)CCC(N)C(=O)O)C(=O)NCC(=O)O` (centres undefined), the TGI with SR leukemia is greater than 2 µM; with SF-539 CNS, greater than 2 µM; in the experiment on LOX IMVI melanoma, greater than 2000 µM; in the experiment with DLD-1 colon it was greater than 2000 µM; in the experiment with KM20L2 colon, greater than 2000 µM; with COLO 205 colon, greater than 2000 µM. In addition, the TGI in the experiment with NCI-H23 lung and with NCI-H460 lung was greater than 2000 µM throughout. Besides, the GI50 is 668 µM in the experiment with LOX IMVI melanoma; greater than 2000 µM in the experiment with DLD-1 colon; greater than 2000 µM with KM20L2 colon; greater than 2000 µM in the experiment on COLO 205 colon; greater than 2000 µM with NCI-H23 lung; greater than 2 µM in the experiment on NCI-H460 lung.
On to `NC(=O)C(=O)N/N=C1\C(=O)N(c2ccc(Cl)cc2Cl)C(=O)C1C(=O)Nc1ccc(Cl)cc1Cl` (centres undefined), for which the TGI in the experiment on SR leukemia, in the experiment with SF-539 CNS, in the experiment with LOX IMVI melanoma, in the experiment on DLD-1 colon, with KM20L2 colon and with COLO 205 colon was greater than 100 µM in each case. In addition, the TGI in the experiment on NCI-H23 lung and with NCI-H460 lung was greater than 100 µM throughout.
With `COC(=O)NC(=O)c1cn(C2OC(CO)C(O)C2O)c(=O)[nH]c1=O` (centres undefined), the TGI with SR leukemia, with SF-539 CNS, in the experiment with LOX IMVI melanoma, in the experiment with DLD-1 colon, with KM20L2 colon and with COLO 205 colon was greater than 100 µM each time. The TGI in the experiment with NCI-H23 lung and in the experiment with NCI-H460 lung was greater than 100 µM throughout.
`C=C(C)[C@@H]1CC[C@]2(C)CC[C@]3(C)[C@H](CC[C@@H]4[C@@]5(C)CC[C@H](O)C(C)(C)[C@@H]5CC[C@]43C)[C@@H]12`: the TGI in the experiment with SR leukemia is greater than 100 µM; in the experiment with SF-539 CNS, greater than 100 µM; in the experiment on LOX IMVI melanoma, 36.3 µM; in the experiment on DLD-1 colon it was greater than 100 µM; in the experiment with KM20L2 colon it was greater than 100 µM; in the experiment on DU-145 prostate, greater than 100 µM. Further, the TGI in the experiment on COLO 205 colon, in the experiment with NCI-H23 lung, with NCI-H460 lung and in the experiment on NCI/ADR-RES ovarian was greater than 100 µM each time.
Turning to `O=C1CC(O)CC(=O)C1=C(O)CCCCCCCCCCc1ccccc1` (centres undefined), the TGI in the experiment with SR leukemia, with SF-539 CNS, in the experiment with LOX IMVI melanoma, in the experiment on DLD-1 colon, in the experiment on KM20L2 colon and in the experiment on COLO 205 colon was greater than 100 µM in each case. The TGI in the experiment with NCI-H23 lung and in the experiment with NCI-H460 lung was greater than 100 µM each time.
Regarding `C=C1C(=O)O[C@@H]2C[C@@H](C)[C@@H]3C=CC(=O)[C@@]3(C)[C@@H](O)[C@H]12`, the TGI with SR leukemia was determined as 2.65 µM; in the experiment with SF-539 CNS, 9.36 µM; in the experiment with LOX IMVI melanoma it was 2.01 µM; in the experiment with DLD-1 colon, 1.49 µM; with KM20L2 colon, 3.87 µM; in the experiment with DU-145 prostate it was 15.5 µM. Moreover, the TGI was found to be 5.11 µM in the experiment on COLO 205 colon, 4.15 µM in the experiment on NCI-H23 lung and 4.46 µM with NCI-H460 lung.
As to `N.N.N.N.N.NC(=O)c1nn[n-]n1.[Cl-].[Co+3]`, the GI50 in the experiment with SR leukemia, in the experiment on SF-539 CNS, in the experiment on LOX IMVI melanoma, in the experiment with DLD-1 colon, in the experiment on KM20L2 colon and in the experiment with COLO 205 colon was greater than 100 µM throughout. For the same compound, the GI50 in the experiment with NCI-H23 lung and in the experiment on NCI-H460 lung was greater than 100 µM each time. In addition, the TGI with SR leukemia, in the experiment on SF-539 CNS, in the experiment on LOX IMVI melanoma, in the experiment on DLD-1 colon, in the experiment with KM20L2 colon and in the experiment with COLO 205 colon was greater than 100 µM throughout. In addition, the TGI with NCI-H23 lung and with NCI-H460 lung was greater than 100 µM each time.
As to `O=C(COc1ccc(Cl)cc1)N1N=C(c2ccc(Cl)cc2)CC1(O)c1ccccc1` (centres undefined), the TGI in the experiment with SR leukemia was 17.7 µM; in the experiment with SF-539 CNS, greater than 59.4 µM; in the experiment with LOX IMVI melanoma, 26.6 µM; in the experiment on DLD-1 colon, 49.5 µM; in the experiment with KM20L2 colon, greater than 50.9 µM; in the experiment with COLO 205 colon it was 54.6 µM. Further, the results for the TGI in the experiment on NCI-H23 lung and in the experiment with NCI-H460 lung were 33.9 µM and 35.7 µM, respectively.
